Data reported in patent US10273233B2, “Inhibitors of influenza viruses replication” (Vertex Pharmaceuticals Incorporated, priority 2015, dated 2019).
Where a name gives a salt, the structure may show the parent alone. Read-outs that look alike come from different tables or passages of the source.

CC(C)(C)[C@@H](CC(=O)O)Nc1nc(-c2c[nH]c3ncc(F)cc23)ncc1F [H2SO4 Salt]
Final Form (SGF (pH --1.5), 5 min): H2SO4 | concentration, two-stage in vitro dissolution (SGF (pH --1.5), 5 min): 0.407 | Final Form (SGF (pH --1.5), 15 min): H2SO4 | concentration, two-stage in vitro dissolution (SGF (pH --1.5), 15 min): 0.407 | Final Form (SGF (pH --1.5), 30 min): H2SO4 | concentration, two-stage in vitro dissolution (SGF (pH --1.5), 30 min): 0.417 | Final Form (SGF (pH --1.5), 60 min): H2SO4 | concentration, two-stage in vitro dissolution (SGF (pH --1.5), 60 min): 0.399 | Final Form (SIF (no pH Adjustment), 75 min): H2 | concentration, two-stage in vitro dissolution (SIF (no pH Adjustment), 75 min): 0.242 | Final Form (SIF (no pH Adjustment), 90 min): H2 | concentration, two-stage in vitro dissolution (SIF (no pH Adjustment), 90 min): 0.236 | Final Form (SIF (pH --6.4), 105 min): H2 | concentration, two-stage in vitro dissolution (SIF (pH --6.4), 105 min): 1.373 | Final Form (SIF (pH --6.4), 120 min): H2 | concentration, two-stage in vitro dissolution (SIF (pH --6.4), 120 min): 1.284 | Final Form (SIF (pH --6.4), 150 min): H2 | concentration, two-stage in vitro dissolution (SIF (pH --6.4), 150 min): 0.396 | Final Form (SIF (pH --6.4), 180 min): H2 | concentration, two-stage in vitro dissolution (SIF (pH --6.4), 180 min): 0.652 | Final Form (SIF (pH --6.4), 240 min): H2 | concentration, two-stage in vitro dissolution (SIF (pH --6.4), 240 min): 0.789

CC(C)(C)[C@@H](CC(=O)O)Nc1nc(-c2c[nH]c3ncc(F)cc23)ncc1F [FF Lot 7]
Final Form (SGF (pH --1.5), 5 min): H3 | concentration, two-stage in vitro dissolution (SGF (pH --1.5), 5 min): 2.053 | Final Form (SGF (pH --1.5), 15 min): H3 | concentration, two-stage in vitro dissolution (SGF (pH --1.5), 15 min): 1.278 | Final Form (SGF (pH --1.5), 30 min): H3 | concentration, two-stage in vitro dissolution (SGF (pH --1.5), 30 min): 2.031 | Final Form (SGF (pH --1.5), 60 min): H3 | concentration, two-stage in vitro dissolution (SGF (pH --1.5), 60 min): 2.40 | Final Form (SIF (no pH Adjustment), 75 min): H3 | concentration, two-stage in vitro dissolution (SIF (no pH Adjustment), 75 min): 0.163 | Final Form (SIF (no pH Adjustment), 90 min): H3 | concentration, two-stage in vitro dissolution (SIF (no pH Adjustment), 90 min): 0.148 | Final Form (SIF (pH --6.4), 105 min): H3 | concentration, two-stage in vitro dissolution (SIF (pH --6.4), 105 min): 1.588 | Final Form (SIF (pH --6.4), 120 min): H3 | concentration, two-stage in vitro dissolution (SIF (pH --6.4), 120 min): 1.534 | Final Form (SIF (pH --6.4), 150 min): H3 | concentration, two-stage in vitro dissolution (SIF (pH --6.4), 150 min): 1.058 | Final Form (SIF (pH --6.4), 180 min): H3 | concentration, two-stage in vitro dissolution (SIF (pH --6.4), 180 min): 0.971 | Final Form (SIF (pH --6.4), 240 min): H3 | concentration, two-stage in vitro dissolution (SIF (pH --6.4), 240 min): 1.497

CC(C)(C)[C@@H](CC(=O)O)Nc1nc(-c2c[nH]c3ncc(F)cc23)ncc1F [HCl Salt]
Final Form (SGF (pH --1.5), 5 min): Amorphous | concentration, two-stage in vitro dissolution (SGF (pH --1.5), 5 min): 14.664 | Final Form (SGF (pH --1.5), 15 min): Amorphous | concentration, two-stage in vitro dissolution (SGF (pH --1.5), 15 min): 16.565 | Final Form (SGF (pH --1.5), 30 min): Amorphous | concentration, two-stage in vitro dissolution (SGF (pH --1.5), 30 min): 14.808 | Final Form (SGF (pH --1.5), 60 min): Amorphous | concentration, two-stage in vitro dissolution (SGF (pH --1.5), 60 min): 15.135 | Final Form (SIF (no pH Adjustment), 75 min): H2 | concentration, two-stage in vitro dissolution (SIF (no pH Adjustment), 75 min): 0.747 | Final Form (SIF (no pH Adjustment), 90 min): H2 | concentration, two-stage in vitro dissolution (SIF (no pH Adjustment), 90 min): 0.964 | Final Form (SIF (pH --6.4), 105 min): H2 | concentration, two-stage in vitro dissolution (SIF (pH --6.4), 105 min): 0.474 | Final Form (SIF (pH --6.4), 120 min): H2 | concentration, two-stage in vitro dissolution (SIF (pH --6.4), 120 min): 0.477 | Final Form (SIF (pH --6.4), 150 min): H2 | concentration, two-stage in vitro dissolution (SIF (pH --6.4), 150 min): 0.749 | Final Form (SIF (pH --6.4), 180 min): H2 | concentration, two-stage in vitro dissolution (SIF (pH --6.4), 180 min): 0.340 | Final Form (SIF (pH --6.4), 240 min): H2 | concentration, two-stage in vitro dissolution (SIF (pH --6.4), 240 min): 0.395
